Patent US8192962B2, “Processes for detecting toxic substances” (Daikin Industries, Ltd., priority 2001, dated 2012)

Test system: Energy system protein genes
Assay: DNA chip mRNA expression in yeast, energy system protein genes (Table 4)
Type: cell-based, Saccharomyces cerevisiae S288C
Method in brief: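 Ratios compare mRNA levels in stressed and control S. cerevisiae. Each toxicant was applied for two hours to log-phase cultures at 25° C. at a sub-lethal, growth-inhibiting level; fluorescent cDNA (Cy3- or Cy5-dUTP) was hybridized to a genome-wide yeast chip for over 12 h at 65° C.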

Measured: The level of expressed mRNA in the presence of chemical substance/The level of expressed mRNA in the absence of chemical substance

S=C([S-])NCCNC(=S)[S-].[Zn+2] [(11), zinc N,N′-ethylenebis(dithiocarbamate)]
−0.4: yeast gene YPL276W, cells incubated two hours with the chemical substance
1.1: yeast gene YGL018C, cells incubated two hours with the chemical substance | yeast gene YJL121C, cells incubated two hours with the chemical substance | yeast gene YJL216C, cells incubated two hours with the chemical substance | yeast gene YJR009C | yeast gene YLR044C, cells incubated two hours with the chemical substance | yeast gene YLR134W, cells incubated two hours with the chemical substance | yeast gene YPL061W, cells incubated two hours with the chemical substance | yeast gene YPL088W
2.6: yeast gene YGR008C | yeast gene YOL086C, cells incubated two hours with the chemical substance
1.4: yeast gene YDL067C, cells incubated two hours with the chemical substance | yeast gene YDR377W, cells incubated two hours with the chemical substance | yeast gene YHL008C | yeast gene YHR174W | yeast gene YJL166W, cells incubated two hours with the chemical substance | yeast gene YLR038C, cells incubated two hours with the chemical substance | yeast gene YPL031C, cells incubated two hours with the chemical substance | yeast gene YPL262W, cells incubated two hours with the chemical substance
1.7: yeast gene YDL078C, cells incubated two hours with the chemical substance | yeast gene YEL039C, cells incubated two hours with the chemical substance | yeast gene YLR354C, cells incubated two hours with the chemical substance
1.6: yeast gene YGL191W, cells incubated two hours with the chemical substance | yeast gene YGR062C, cells incubated two hours with the chemical substance, 25° C., YPD medium | yeast gene YLR304C, cells incubated two hours with the chemical substance | yeast gene YML087C | yeast gene YNL071W
1.0: yeast gene YBR001C, cells incubated two hours with the chemical substance | yeast gene YDL107W, cells incubated two hours with the chemical substance | yeast gene YGL256W, cells incubated two hours with the chemical substance | yeast gene YJR048W | yeast gene YMR205C, cells incubated two hours with the chemical substance | yeast gene YMR267W, cells incubated two hours with the chemical substance, 25° C., YPD medium | yeast gene YPL240C | yeast gene YPR048W, cells incubated two hours with the chemical substance
2.0: yeast gene YDR050C, cells incubated two hours with the chemical substance | yeast gene YDR178W, cells incubated two hours with the chemical substance | yeast gene YHR179W
0.7: yeast gene YDR001C | yeast gene YGL062W | yeast gene YGL187C, cells incubated two hours with the chemical substance | yeast gene YMR118C
37.0: yeast gene YPL171C
0.4: yeast gene YGL205W, cells incubated two hours with the chemical substance
3.0: yeast gene YNL241C
15.4: yeast gene YJR155W
4.1: yeast gene YOR178C, cells incubated two hours with the chemical substance
4.3: yeast gene YJL052W
2.1: yeast gene YBL099W, cells incubated two hours with the chemical substance | yeast gene YKL060C, cells incubated two hours with the chemical substance
2.3: yeast gene YCR105W, cells incubated two hours with the chemical substance | yeast gene YGR192C
2.4: yeast gene YAL060W | yeast gene YIL160C
1.8: yeast gene YCR012W | yeast gene YGR244C
2.7: yeast gene YGR256W
17.6: yeast gene YOL165C
3.6: yeast gene YGR043C | yeast gene YPR184W, cells incubated two hours with the chemical substance
0.9: yeast gene YDL174C | yeast gene YEL024W, cells incubated two hours with the chemical substance | yeast gene YJR121W, cells incubated two hours with the chemical substance | yeast gene YMR073C, cells incubated two hours with the chemical substance | yeast gene YPL275W, cells incubated two hours with the chemical substance
0.6: yeast gene YLR377C, cells incubated two hours with the chemical substance
27.7: yeast gene YFL057C
8.2: yeast gene YCL040W
0.8: yeast gene YDL181W, cells incubated two hours with the chemical substance | yeast gene YDR529C, cells incubated two hours with the chemical substance | yeast gene YGR087C, cells incubated two hours with the chemical substance | yeast gene YKR097W | yeast gene YMR261C, cells incubated two hours with the chemical substance
21.8: yeast gene YNL331C
4.7: yeast gene YDL021W
2.5: yeast gene YER178W | yeast gene YLR345W | yeast gene YMR323W, cells incubated two hours with the chemical substance
1.3: yeast gene YBL058W, cells incubated two hours with the chemical substance | yeast gene YDR079W, cells incubated two hours with the chemical substance | yeast gene YDR231C | yeast gene YGR174C, cells incubated two hours with the chemical substance | yeast gene YGR254W | yeast gene YKL016C, cells incubated two hours with the chemical substance | yeast gene YLL041C, cells incubated two hours with the chemical substance | yeast gene YLR295C, cells incubated two hours with the chemical substance, 25° C., YPD medium | yeast gene YML120C, cells incubated two hours with the chemical substance | yeast gene YOR388C, cells incubated two hours with the chemical substance
1.2: yeast gene YBR185C, cells incubated two hours with the chemical substance | yeast gene YBR221C, cells incubated two hours with the chemical substance | yeast gene YDR298C, cells incubated two hours with the chemical substance | yeast gene YIL045W | yeast gene YIR031C, cells incubated two hours with the chemical substance | yeast gene YKL141W, cells incubated two hours with the chemical substance | yeast gene YKR009C, cells incubated two hours with the chemical substance | yeast gene YLR258W, cells incubated two hours with the chemical substance | yeast gene YML129C, cells incubated two hours with the chemical substance | yeast gene YNL202W, cells incubated two hours with the chemical substance
1.5: yeast gene YCR046C, cells incubated two hours with the chemical substance | yeast gene YFR053C | yeast gene YKL148C, cells incubated two hours with the chemical substance | yeast gene YKR058W, cells incubated two hours with the chemical substance, 25° C., YPD medium | yeast gene YLR284C, cells incubated two hours with the chemical substance | yeast gene YLR395C, cells incubated two hours with the chemical substance | yeast gene YOR142W, cells incubated two hours with the chemical substance
